Biological target: T1, Neutrophil elastase (Homo sapiens, UniProt P08246)
T1 sequence (P08246 whole entry): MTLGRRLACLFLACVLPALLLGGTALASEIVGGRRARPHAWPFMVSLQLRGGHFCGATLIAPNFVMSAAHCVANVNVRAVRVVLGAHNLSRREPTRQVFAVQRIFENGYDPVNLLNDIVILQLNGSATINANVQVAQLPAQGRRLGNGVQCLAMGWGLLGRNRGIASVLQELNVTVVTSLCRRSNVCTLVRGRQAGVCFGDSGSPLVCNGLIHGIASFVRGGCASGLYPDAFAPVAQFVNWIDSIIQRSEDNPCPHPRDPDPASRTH
Assay: Compound was evaluated for the inhibitory activity against Human leukocyte elastase; time-dependent inhibition was not observed
Conditions: read-out: kon (M-1-s-1)

- kon: 5.6 M⁻¹ s⁻¹
SMILES: CC[C@H]1C(=O)N(C(=O)NCc2ccccc2)[C@H]1Oc1ccc(C(=O)O)cc1

Reference: BindingDB's records for doi:10.7270/Q2V69MR5 (n/a, 1993)
